According to PMC10912062, “A novel PET probe to selectively image heat shock protein 90α/β isoforms in the brain” (EJNMMI Radiopharmacy and Chemistry, 2024):

Columns and labels:
Assay in all cases: biochemical
Conditions in all cases: read-out: Percentage of inhibition / BIIB021 1×10-5 mol/L; competitive radioligand binding
Endothelin ETB (Human) = target: T1, Endothelin ETB (Human) (Homo sapiens, UniProt P24530)
T1 construct: gene EDNRB
Experimental: (§1) Percent inhibition for each protein was calculated following the reported method (Okamura et al. [2013]).

α1A-Adrenergic = target: T2, α1A-Adrenergic (Rattus norvegicus, UniProt P43140)
T2 construct: gene Adra1a
Experimental: as §1

Cannabinoid CB2 (Human) = target: T3, Cannabinoid CB2 (Human) (Homo sapiens, UniProt P34972)
T3 construct: gene CNR2
Experimental: as §1

Melatonin MT1 (Human) = target: T4, Melatonin MT1 (Human) (Homo sapiens, UniProt P48039)
T4 construct: gene MTNR1A
Experimental: as §1

Dopamine D3 (Human) = target: T5, Dopamine D3 (Human) (Homo sapiens, UniProt P35462)
T5 construct: gene DRD3
Experimental: as §1

Vasopressin V1 = target: T6, Vasopressin V1 (Rattus norvegicus, UniProt P30560)
T6 construct: gene Avpr1a
Experimental: as §1

Neuropeptide Y2 (Human) = target: T7, Neuropeptide Y2 (Human) (Homo sapiens, UniProt P49146)
T7 construct: gene NPY2R
Experimental: as §1

CCK A (Human) = target: T8, CCK A (Human) (Homo sapiens, UniProt P32238)
T8 construct: gene CCKAR
Experimental: as §1

α1B-Adrenergic = target: T9, α1B-Adrenergic (Rattus norvegicus, UniProt P15823)
T9 construct: gene Adra1b
Experimental: as §1

Dopamine D1 (Human) = target: T10, Dopamine D1 (Human) (Homo sapiens, UniProt P21728)
T10 construct: gene DRD1
Experimental: as §1

Opiate μ (Human) = target: T11, Opiate μ (Human) (Homo sapiens, UniProt P35372)
T11 construct: gene OPRM1
Experimental: as §1

Adenosine A1 (Human) = target: T12, Adenosine A1 (Human) (Homo sapiens, UniProt P30542)
T12 construct: gene ADORA1
Experimental: as §1

β1-Adrenergic (Human) = target: T13, β1-Adrenergic (Human) (Homo sapiens, UniProt P08588)
T13 construct: gene ADRB1
Experimental: as §1

Sigma σ2 = target: T14, Sigma σ2 (Rattus norvegicus, UniProt Q5U3Y7)
T14 construct: gene Tmem97
Experimental: as §1

Glucocorticoid (Human) = target: T15, Glucocorticoid (Human) (Homo sapiens, UniProt P04150)
T15 construct: gene NR3C1
Experimental: as §1

Bradykinin B2 (Human) = target: T16, Bradykinin B2 (Human) (Homo sapiens, UniProt P30411)
T16 construct: gene BDKRB2
Experimental: as §1

[1] = target: T17, Dopamine transporter (Human) (Homo sapiens, UniProt Q01959)
T17 construct: gene SLC6A3
Experimental: as §1

Neurokinin NK1 (Human) = target: T18, Neurokinin NK1 (Human) (Homo sapiens, UniProt P25103)
T18 construct: gene TACR1
Experimental: as §1

β2-Adrenergic (Human) = target: T19, β2-Adrenergic (Human) (Homo sapiens, UniProt P07550)
T19 construct: gene ADRB2
Experimental: as §1

Histamine H3 (Human) = target: T20, Histamine H3 (Human) (Homo sapiens, UniProt Q9Y5N1)
T20 construct: gene HRH3
Experimental: as §1

Angiotensin AT1 (Human) = target: T21, Angiotensin AT1 (Human) (Homo sapiens, UniProt P30556)
T21 construct: gene AGTR1
Experimental: as §1

Histamine H2 (Human) = target: T22, Histamine H2 (Human) (Homo sapiens, UniProt P25021)
T22 construct: gene HRH2
Experimental: as §1

Bradykinin B1 (Human) = target: T23, Bradykinin B1 (Human) (Homo sapiens, UniProt P46663)
T23 construct: gene BDKRB1
Experimental: as §1

Opiate δ (Human) = target: T24, Opiate δ (Human) (Homo sapiens, UniProt P41143)
T24 construct: gene OPRD1
Experimental: as §1

[2] = target: T25, Serotonin transporter (Human) (Homo sapiens, UniProt P31645)
T25 construct: gene SLC6A4
Experimental: as §1

[3] = target: T26, Norepinephrine transporter (Human) (Homo sapiens, UniProt P23975)
T26 construct: gene SLC6A2
Experimental: as §1

α2B-Adrenergic (Human) = target: T27, α2B-Adrenergic (Human) (Homo sapiens, UniProt P18089)
T27 construct: gene ADRA2B
Experimental: as §1

α2A-Adrenergic (Human) = target: T28, α2A-Adrenergic (Human) (Homo sapiens, UniProt P08913)
T28 construct: gene ADRA2A
Experimental: as §1

Opiate κ (Human) = target: T29, Opiate κ (Human) (Homo sapiens, UniProt P41145)
T29 construct: gene OPRK1
Experimental: as §1

Adenosine A2a (Human) = target: T30, Adenosine A2a (Human) (Homo sapiens, UniProt P29274)
T30 construct: gene ADORA2A
Experimental: as §1

GABA B = target: T31, GABA B (Rattus norvegicus, UniProt Q9Z0U4)
T31 construct: gene Gabbr1
Experimental: as §1

Androgen = target: T32, Androgen (Rattus norvegicus, UniProt P15207)
T32 construct: gene Ar
Experimental: as §1

Serotonin 5HT2A (Human) = target: T33, Serotonin 5HT2A (Human) (Homo sapiens, UniProt P28223)
T33 construct: gene HTR2A
Experimental: as §1

[4] = target: T34, Dopamine D2 short (Human) (Homo sapiens, UniProt P14416)
T34 construct: gene DRD2; short isoform
Experimental: as §1

Histamine H1 (Human) = target: T35, Histamine H1 (Human) (Homo sapiens, UniProt P35367)
T35 construct: gene HRH1
Experimental: as §1

Serotonin 5HT1A (Human) = target: T36, Serotonin 5HT1A (Human) (Homo sapiens, UniProt P08908)
T36 construct: gene HTR1A
Experimental: as §1

Cannabinoid CB1 (Human) = target: T37, Cannabinoid CB1 (Human) (Homo sapiens, UniProt P21554)
T37 construct: gene CNR1
Experimental: as §1

Muscarinic M1 (Human) = target: T38, Muscarinic M1 (Human) (Homo sapiens, UniProt P11229)
T38 construct: gene CHRM1
Experimental: as §1

Serotonin 5HT3 (Human) = target: T39, Serotonin 5HT3 (Human) (Homo sapiens, UniProt P46098)
T39 construct: gene HTR3A
Experimental: as §1

Muscarinic M2 (Human) = target: T40, Muscarinic M2 (Human) (Homo sapiens, UniProt P08172)
T40 construct: gene CHRM2
Experimental: as §1

Endothelin ETA (Human) = target: T41, Endothelin ETA (Human) (Homo sapiens, UniProt P25101)
T41 construct: gene EDNRA
Experimental: as §1

Muscarinic M3 (Human) = target: T42, Muscarinic M3 (Human) (Homo sapiens, UniProt P20309)
T42 construct: gene CHRM3
Experimental: as §1

T7 sequence (P49146 whole entry): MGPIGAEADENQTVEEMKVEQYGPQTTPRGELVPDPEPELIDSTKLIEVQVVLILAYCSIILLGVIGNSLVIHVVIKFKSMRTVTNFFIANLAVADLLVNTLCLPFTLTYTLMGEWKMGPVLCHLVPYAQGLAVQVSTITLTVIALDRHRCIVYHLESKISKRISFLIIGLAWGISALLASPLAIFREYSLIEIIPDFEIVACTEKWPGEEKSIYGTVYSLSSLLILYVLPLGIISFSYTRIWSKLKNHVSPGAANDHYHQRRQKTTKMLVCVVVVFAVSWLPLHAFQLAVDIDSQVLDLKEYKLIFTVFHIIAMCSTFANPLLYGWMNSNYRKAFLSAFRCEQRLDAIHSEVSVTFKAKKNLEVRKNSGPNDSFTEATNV
T16 sequence (P30411 whole entry): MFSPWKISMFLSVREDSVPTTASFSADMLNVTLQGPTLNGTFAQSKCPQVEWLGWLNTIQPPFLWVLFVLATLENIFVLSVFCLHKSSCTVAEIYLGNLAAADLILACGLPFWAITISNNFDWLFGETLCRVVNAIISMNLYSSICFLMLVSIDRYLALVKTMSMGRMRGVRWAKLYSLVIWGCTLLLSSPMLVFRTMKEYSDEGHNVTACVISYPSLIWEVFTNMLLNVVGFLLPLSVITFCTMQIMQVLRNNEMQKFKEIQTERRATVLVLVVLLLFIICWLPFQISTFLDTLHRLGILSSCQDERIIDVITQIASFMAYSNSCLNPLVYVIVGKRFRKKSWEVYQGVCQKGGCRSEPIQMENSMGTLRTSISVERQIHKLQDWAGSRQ
T15 sequence (P04150 whole entry): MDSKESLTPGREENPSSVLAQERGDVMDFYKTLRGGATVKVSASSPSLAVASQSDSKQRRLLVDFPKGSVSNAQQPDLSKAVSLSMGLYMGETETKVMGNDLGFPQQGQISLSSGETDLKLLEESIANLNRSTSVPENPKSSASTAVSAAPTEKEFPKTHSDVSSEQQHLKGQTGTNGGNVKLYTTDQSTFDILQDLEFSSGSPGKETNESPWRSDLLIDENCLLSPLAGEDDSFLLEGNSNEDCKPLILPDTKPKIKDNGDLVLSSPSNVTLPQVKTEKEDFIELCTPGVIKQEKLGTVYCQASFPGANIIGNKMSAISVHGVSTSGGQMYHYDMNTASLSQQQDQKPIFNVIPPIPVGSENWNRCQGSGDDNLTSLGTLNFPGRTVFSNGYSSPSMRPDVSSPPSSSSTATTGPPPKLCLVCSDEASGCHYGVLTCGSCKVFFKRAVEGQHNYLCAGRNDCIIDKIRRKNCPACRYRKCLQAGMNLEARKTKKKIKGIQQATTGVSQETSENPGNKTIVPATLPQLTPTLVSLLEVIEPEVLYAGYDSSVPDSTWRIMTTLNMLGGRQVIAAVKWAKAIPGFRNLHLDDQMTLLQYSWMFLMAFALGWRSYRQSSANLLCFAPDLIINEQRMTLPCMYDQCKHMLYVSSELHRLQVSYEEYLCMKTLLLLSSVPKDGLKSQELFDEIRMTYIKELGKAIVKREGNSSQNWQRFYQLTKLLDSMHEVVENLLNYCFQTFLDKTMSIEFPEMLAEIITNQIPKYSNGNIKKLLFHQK
T38 sequence (P11229 whole entry): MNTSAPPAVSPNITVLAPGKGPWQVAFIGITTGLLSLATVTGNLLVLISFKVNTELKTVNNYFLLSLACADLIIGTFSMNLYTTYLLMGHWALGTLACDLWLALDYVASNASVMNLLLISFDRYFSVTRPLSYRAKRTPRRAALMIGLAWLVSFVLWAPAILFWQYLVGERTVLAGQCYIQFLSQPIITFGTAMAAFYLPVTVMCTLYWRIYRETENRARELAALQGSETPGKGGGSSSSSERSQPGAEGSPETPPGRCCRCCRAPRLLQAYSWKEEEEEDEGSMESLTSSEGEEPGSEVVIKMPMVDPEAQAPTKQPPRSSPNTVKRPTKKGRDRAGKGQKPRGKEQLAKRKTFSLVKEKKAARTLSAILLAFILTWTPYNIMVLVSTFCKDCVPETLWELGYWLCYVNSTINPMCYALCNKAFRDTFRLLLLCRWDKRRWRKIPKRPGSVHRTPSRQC
T37 sequence (P21554 whole entry): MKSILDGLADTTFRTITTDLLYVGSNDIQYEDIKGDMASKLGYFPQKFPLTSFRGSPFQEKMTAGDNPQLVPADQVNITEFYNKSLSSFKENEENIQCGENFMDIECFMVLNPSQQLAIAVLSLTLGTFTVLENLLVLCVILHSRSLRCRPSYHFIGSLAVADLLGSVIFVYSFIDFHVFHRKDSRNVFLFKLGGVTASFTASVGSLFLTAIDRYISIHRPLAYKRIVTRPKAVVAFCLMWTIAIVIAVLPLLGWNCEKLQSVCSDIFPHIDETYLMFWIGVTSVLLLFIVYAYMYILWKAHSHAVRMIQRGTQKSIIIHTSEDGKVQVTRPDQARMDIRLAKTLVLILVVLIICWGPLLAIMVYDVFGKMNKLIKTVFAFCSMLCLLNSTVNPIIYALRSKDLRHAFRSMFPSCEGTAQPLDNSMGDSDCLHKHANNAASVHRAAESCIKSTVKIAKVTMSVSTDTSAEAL
T21 sequence (P30556 whole entry): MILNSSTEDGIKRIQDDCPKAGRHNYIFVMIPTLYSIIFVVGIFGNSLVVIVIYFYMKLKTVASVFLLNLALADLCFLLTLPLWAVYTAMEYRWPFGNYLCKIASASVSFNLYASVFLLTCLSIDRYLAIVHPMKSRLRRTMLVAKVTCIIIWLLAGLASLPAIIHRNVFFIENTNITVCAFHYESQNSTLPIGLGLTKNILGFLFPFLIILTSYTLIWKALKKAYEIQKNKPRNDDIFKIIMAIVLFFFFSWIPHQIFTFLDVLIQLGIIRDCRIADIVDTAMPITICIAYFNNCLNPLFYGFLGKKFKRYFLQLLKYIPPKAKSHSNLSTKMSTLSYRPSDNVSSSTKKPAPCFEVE
T17 sequence (Q01959 whole entry): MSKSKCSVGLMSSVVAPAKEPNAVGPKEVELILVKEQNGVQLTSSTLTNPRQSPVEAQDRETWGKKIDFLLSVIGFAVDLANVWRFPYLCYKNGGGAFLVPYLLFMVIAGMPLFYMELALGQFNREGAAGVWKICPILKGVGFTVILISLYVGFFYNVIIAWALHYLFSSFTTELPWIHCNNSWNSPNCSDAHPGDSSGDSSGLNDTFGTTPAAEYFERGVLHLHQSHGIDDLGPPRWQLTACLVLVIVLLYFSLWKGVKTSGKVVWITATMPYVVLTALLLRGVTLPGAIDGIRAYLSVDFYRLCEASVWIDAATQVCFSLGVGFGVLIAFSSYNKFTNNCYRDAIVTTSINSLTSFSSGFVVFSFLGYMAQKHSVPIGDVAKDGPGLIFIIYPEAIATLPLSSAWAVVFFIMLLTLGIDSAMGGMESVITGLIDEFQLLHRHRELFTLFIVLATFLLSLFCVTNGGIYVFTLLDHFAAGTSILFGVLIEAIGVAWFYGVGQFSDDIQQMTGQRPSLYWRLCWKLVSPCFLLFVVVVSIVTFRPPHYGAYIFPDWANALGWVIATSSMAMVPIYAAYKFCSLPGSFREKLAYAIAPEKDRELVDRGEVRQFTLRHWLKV
T39 sequence (P46098 whole entry): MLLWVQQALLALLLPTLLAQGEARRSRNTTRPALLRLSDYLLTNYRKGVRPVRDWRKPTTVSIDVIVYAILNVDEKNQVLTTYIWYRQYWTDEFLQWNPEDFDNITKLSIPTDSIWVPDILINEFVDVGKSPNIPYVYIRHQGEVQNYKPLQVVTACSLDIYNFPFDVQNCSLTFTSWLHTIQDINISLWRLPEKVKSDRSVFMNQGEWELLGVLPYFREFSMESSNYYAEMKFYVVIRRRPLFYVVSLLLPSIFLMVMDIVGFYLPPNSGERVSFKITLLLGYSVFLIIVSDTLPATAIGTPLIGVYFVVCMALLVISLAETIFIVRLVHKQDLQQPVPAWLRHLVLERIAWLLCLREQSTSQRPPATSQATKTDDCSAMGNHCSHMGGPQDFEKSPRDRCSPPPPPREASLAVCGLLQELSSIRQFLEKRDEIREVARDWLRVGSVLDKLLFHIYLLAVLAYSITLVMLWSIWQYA
T28 sequence (P08913 whole entry): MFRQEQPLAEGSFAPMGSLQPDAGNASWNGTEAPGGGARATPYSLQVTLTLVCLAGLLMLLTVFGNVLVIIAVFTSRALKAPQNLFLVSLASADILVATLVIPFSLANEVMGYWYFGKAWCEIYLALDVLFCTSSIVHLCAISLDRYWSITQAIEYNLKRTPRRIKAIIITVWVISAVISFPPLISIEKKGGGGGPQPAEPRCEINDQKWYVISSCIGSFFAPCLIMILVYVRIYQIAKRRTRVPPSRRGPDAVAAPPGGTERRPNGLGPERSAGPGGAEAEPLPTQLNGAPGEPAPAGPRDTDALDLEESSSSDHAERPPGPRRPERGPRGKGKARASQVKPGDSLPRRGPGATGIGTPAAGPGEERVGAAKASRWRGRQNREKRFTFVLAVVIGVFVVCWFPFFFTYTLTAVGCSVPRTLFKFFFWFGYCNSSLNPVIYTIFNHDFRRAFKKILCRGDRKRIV
T20 sequence (Q9Y5N1 whole entry): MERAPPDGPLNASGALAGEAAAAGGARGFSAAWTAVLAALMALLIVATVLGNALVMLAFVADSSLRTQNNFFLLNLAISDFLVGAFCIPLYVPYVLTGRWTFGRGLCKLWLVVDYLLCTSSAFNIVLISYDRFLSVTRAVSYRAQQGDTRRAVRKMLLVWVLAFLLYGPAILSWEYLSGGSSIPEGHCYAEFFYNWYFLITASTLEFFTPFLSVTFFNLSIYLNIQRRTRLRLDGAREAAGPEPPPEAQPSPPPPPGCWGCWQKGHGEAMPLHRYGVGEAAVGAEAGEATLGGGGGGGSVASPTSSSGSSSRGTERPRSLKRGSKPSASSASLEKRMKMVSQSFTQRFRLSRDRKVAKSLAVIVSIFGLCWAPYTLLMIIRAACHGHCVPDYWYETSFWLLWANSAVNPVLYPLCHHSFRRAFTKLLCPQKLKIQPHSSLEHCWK

In the case of `COc1c(C)cnc(Cn2cnc3c(Cl)nc(N)nc32)c1C` [BIIB021, 6-Chloro-9-[(4-methoxy-3,5-dimethylpyridin-2-yl)methyl]-9H-purin-2-amine], the inhibition at 10 µM (Endothelin ETB (Human)) is reported as 4.7%, the inhibition at 10 µM (α1A-Adrenergic) is reported as 1.8% and the inhibition at 10 µM (Cannabinoid CB2 (Human)) is reported as 0%. For the same compound, the inhibition at 10 µM (Melatonin MT1 (Human)) was 26%, the inhibition at 10 µM (Dopamine D3 (Human)) was 0.4% and the inhibition at 10 µM (Vasopressin V1) was 3%. For the same compound, the inhibition at 10 µM (Neuropeptide Y2 (Human)) was 1.3%, the inhibition at 10 µM (CCK A (Human)) was 2.8% and the inhibition at 10 µM (α1B-Adrenergic) was 0%. It also gave an inhibition at 10 µM (Dopamine D1 (Human)) of 16%, an inhibition at 10 µM (Opiate μ (Human)) of 0% and an inhibition at 10 µM (Adenosine A1 (Human)) of 8.4%. For the same compound, the inhibition at 10 µM (β1-Adrenergic (Human)) was 0%, the inhibition at 10 µM (Sigma σ2) was 2.4% and the inhibition at 10 µM (Glucocorticoid (Human)) was 0%. The inhibition at 10 µM (Bradykinin B2 (Human)) was 0%, the inhibition at 10 µM [1] was 1.1% and the inhibition at 10 µM (Neurokinin NK1 (Human)) was 6.2%. The inhibition at 10 µM (β2-Adrenergic (Human)) was 0.9%, the inhibition at 10 µM (Histamine H3 (Human)) was 4.5% and the inhibition at 10 µM (Angiotensin AT1 (Human)) was 0%. The inhibition at 10 µM (Histamine H2 (Human)) was 0.7%, the inhibition at 10 µM (Bradykinin B1 (Human)) was 0% and the inhibition at 10 µM (Opiate δ (Human)) was 4.2%. For the same compound, the inhibition at 10 µM [2] was 0%, the inhibition at 10 µM [3] was 0% and the inhibition at 10 µM (α2B-Adrenergic (Human)) was 0%. It also gave an inhibition at 10 µM (α2A-Adrenergic (Human)) of 13%, an inhibition at 10 µM (Opiate κ (Human)) of 14% and an inhibition at 10 µM (Adenosine A2a (Human)) of 14%. For the same compound, the inhibition at 10 µM (GABA B) was 0%, the inhibition at 10 µM (Androgen) was 0.7% and the inhibition at 10 µM (Serotonin 5HT2A (Human)) was 4.9%. It also gave an inhibition at 10 µM [4] of 0.9%, an inhibition at 10 µM (Histamine H1 (Human)) of 8.1% and an inhibition at 10 µM (Serotonin 5HT1A (Human)) of 7.6%. The inhibition at 10 µM (Cannabinoid CB1 (Human)) was 5.1%, the inhibition at 10 µM (Muscarinic M1 (Human)) was 1.5% and the inhibition at 10 µM (Serotonin 5HT3 (Human)) was 18%. The inhibition at 10 µM (Muscarinic M2 (Human)) was 4.6%, the inhibition at 10 µM (Endothelin ETA (Human)) was 4.8% and the inhibition at 10 µM (Muscarinic M3 (Human)) was 1.9%.
